Calls of active or inactive are those of the source. No cut-off for these calls is given here.
Key:
[1] = organism: Rattus norvegicus; assay: Dose required for postsynaptic agonism using motor activity test in reserpinized rats; type: functional
[2] = organism: Rattus norvegicus; assay: Compound was evaluated for postsynaptic agonistic activity using motor activity test in reserpinized rats per 30 min; ns= Not significant; type: functional
[3] = organism: Rattus norvegicus; assay: Postsynaptic agonistic activity using motor activity test in reserpinized rats per 30 min; type: functional
[4] = target: T1, Dopamine receptor (Rattus norvegicus) (UniProt P25115+P19020+P30729+P18901+P61169); assay: Compound was tested for presynaptic agonistic activity against dopamine receptor in limbic system; I= Inactive; type: functional, tissue-based
[5] = target: T1, Dopamine receptor (Rattus norvegicus); assay: Compound was tested or presynaptic agonistic activity against dopamine receptor in striatum; I= Inactive; type: functional, tissue-based
[6] = target: T1, Dopamine receptor (Rattus norvegicus); assay: Compound was tested for presynaptic agonistic activity against dopamine receptor in limbic system; Inactive; type: functional, tissue-based
[7] = tested on: Rattus norvegicus; assay: Dose required for postsynaptic agonism using motor activity test in reserpinized rats; I= Inactive at 2 umol/kg; type: functional, organism-based
[8] = target: T1, Dopamine receptor (Rattus norvegicus); assay: Compound was tested or presynaptic agonistic activity against dopamine receptor in striatum; Inactive; type: functional, tissue-based

Row | SMILES | Dose [1] [µM/kg] | Acc. counts [3] | other results
1 | Oc1ccc2c(c1)C1CCCNC1CC2 (configuration not stated) | 106 | – | Acc. counts [2]: 10
2 | CCCN1CCC[C@H](c2cccc(O)c2)C1 | 13 | 78 | –
3 | CCCN1CCC[C@H]2c3cccc(O)c3CC[C@@H]21 | 1.3 | 62 | –
4 | Oc1cccc2c1CC[C@@H]1NCCC[C@@H]21 | 106 | – | Acc. counts [2]: 10
5 | CN(C)C1CCc2c(O)cccc2C1 (configuration not stated) | 100 | 52 | –
6 | CN1CCc2cccc3c2[C@H]1Cc1ccc(O)c(O)c1-3 [APOMORPHINE] | 2.3 | 361 | –
7 | Oc1cccc2c1CCC(N1CCCCC1)C2 (configuration not stated) | – | – | ED50 [4]: inactive; ED50 [5]: inactive
8 | CCCN(CCC)[C@@H]1Cc2cccc(O)c2C[C@H]1C | 0.31 | 155 | –
9 | CCCCNC1CCc2c(O)cccc2C1 (configuration not stated) | – | – | ED50 [6]: inactive; Dose [7]: inactive; ED50 [8]: inactive
10 | CCCN(C)C1CCc2c(O)cccc2C1 (configuration not stated) | 2 | 239 | –
11 | CCCN1CCC[C@@H](c2ccc(O)c(O)c2)C1 | 50 | 24 | –
12 | CCCN1CCC[C@@H]2c3cc(O)ccc3CC[C@H]21 | 1.06 | 155 | –
13 | CN1CCCC2c3cccc(O)c3CCC21 (configuration not stated) | 100 | 40 | –
14 | CCCN1CCC[C@@H](c2cccc(O)c2)C1 [PRECLAMOL] | 213 | 12 | –
15 | CCNC1CCc2c(O)cccc2C1 (configuration not stated) | 2 | 181 | –
16 | CN1CCCC2c3cc(O)ccc3CCC21 (configuration not stated) | 106 | 60 | –
17 | CCCN(CCC)[C@@H]1CCc2ccc(O)cc2C1 | 0.31 | 46 | –
18 | CNC1CCc2c(O)cccc2C1 (configuration not stated) | 100 | – | Acc. counts [2]: 18

— ChEMBL document CHEMBL1123229, “A molecular mechanics approach to the understanding of presynaptic selectivity for centrally acting dopamine receptor agonists of the phenylpiperidine series” (1986)
